# Measured values as given in ChEMBL document CHEMBL3576852, “Switch in Site of Inhibition: A Strategy for Structure-Based Discovery of Human Topoisomerase IIα Catalytic Inhibitors” (ACS Med Chem Lett, 2015).
# Calls of active or inactive are those of the source. The calls are words filed in the database; no cut-off is given here.
# Assays:
# [1] = target: T1, DNA topoisomerase 2-alpha (Homo sapiens, UniProt P11388); experiment: Inhibition of human topoisomerase 2alpha assessed as reduction in enzyme-mediated relaxation of negatively supercoiled pRYG DNA at 100 uM incubated for 30 mins by ethidium bromide staining based gel electrophoresis method
# [2] = target: T1, DNA topoisomerase 2-alpha; experiment: Inhibition of human topoisomerase 2alpha assessed as reduction in enzyme-mediated kinetoplast DNA decatenation at 100 uM incubated for 30 mins by agarose gel electrophoresis method
# [3] = target: T2, DNA topoisomerase 1 (Homo sapiens) (UniProt P11387); experiment: Inhibition of human topoisomerase-1 assessed as reduction in enzyme-mediated relaxation of negatively supercoiled pRYG DNA at 100 uM incubated for 30 mins by ethidium bromide staining based gel electrophoresis method
# T2 sequence (whole entry): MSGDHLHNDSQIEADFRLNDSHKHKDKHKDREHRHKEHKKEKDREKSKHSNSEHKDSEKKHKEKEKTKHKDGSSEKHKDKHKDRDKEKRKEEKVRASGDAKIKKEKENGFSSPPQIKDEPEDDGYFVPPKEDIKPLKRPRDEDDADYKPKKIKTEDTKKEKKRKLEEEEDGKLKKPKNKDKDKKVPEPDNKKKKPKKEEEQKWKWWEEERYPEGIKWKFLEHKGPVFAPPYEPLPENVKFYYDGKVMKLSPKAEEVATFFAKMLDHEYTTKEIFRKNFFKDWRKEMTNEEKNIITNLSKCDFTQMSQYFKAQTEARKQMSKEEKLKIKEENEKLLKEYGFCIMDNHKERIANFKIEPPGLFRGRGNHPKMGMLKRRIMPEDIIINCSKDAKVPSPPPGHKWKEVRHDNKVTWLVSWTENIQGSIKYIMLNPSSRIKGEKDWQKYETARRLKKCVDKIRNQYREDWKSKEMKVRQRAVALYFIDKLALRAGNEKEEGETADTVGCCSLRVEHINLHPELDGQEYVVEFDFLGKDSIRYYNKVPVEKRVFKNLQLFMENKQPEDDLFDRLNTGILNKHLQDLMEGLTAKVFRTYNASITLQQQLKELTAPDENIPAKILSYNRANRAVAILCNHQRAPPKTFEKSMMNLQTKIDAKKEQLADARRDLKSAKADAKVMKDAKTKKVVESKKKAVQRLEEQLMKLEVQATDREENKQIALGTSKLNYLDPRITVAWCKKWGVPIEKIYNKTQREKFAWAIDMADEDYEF
# [4] = target: T1, DNA topoisomerase 2-alpha; experiment: Poisoning activity against human topoisomerase 2alpha assessed as induction of linear DNA formation at 100 uM incubated for 20 mins using small circular supercoiled pHOT DNA substrate by ethidium bromide staining based gel electrophoresis method
# [5] = test system: HEK293; experiment: Cytotoxicity against HEK293 cells assessed as reduction in cell viability after 48 hrs by MTT assay; format: functional; conditions: Homo sapiens; for CC50: HEK293, 48 h, read-out: LC50 (the source's name)
# [6] = Cytotoxicity against African green monkey Vero cells assessed as cell viability at 75 uM after 48 hrs by MTT assay; format: cell-based; conditions: chlorocebus sabaeus, read-out: Activity
# [7] = target: T1, DNA topoisomerase 2-alpha; experiment: Inhibition of human topoisomerase 2alpha assessed as reduction in enzyme-mediated kinetoplast DNA decatenation incubated for 30 mins by agarose gel electrophoresis method
# [8] = target: T1, DNA topoisomerase 2-alpha; experiment: Inhibition of topoisomerase 2alpha in HEK293 cells at 5 to 15 uM incubated for 48 hrs using TOP-FLASH plasmid substrate by ethidium bromide staining based agarose gel electrophoresis method; format: cell-based
# [9] = Binding affinity to TOP-FLASH TCF/LEF transcription factor DNA (unknown origin) at 5 to 25 uM incubated for 2 hrs by UV-visible spectrophotometry
# [10] = test system: Nucleic Acid; experiment: Induction of DNA intercalation of Escherichia coli pUC19 DNA at 100 uM by ethidium bromide staining based agarose gel electrophoresis method; format: nucleic-acid assay
# [11] = target: T1, DNA topoisomerase 2-alpha; experiment: Inhibition of etoposide-enhanced human topoisomerase 2alpha-mediated DNA cleavage at 100 to 400 uM pre-incubated for 2 mins before 100 uM etoposide addition by ethidium bromide staining based gel electrophoresis method
# [12] = target: T1, DNA topoisomerase 2-alpha; experiment: Inhibition of etoposide-enhanced human topoisomerase 2alpha-mediated DNA cleavage at 100 to 400 uM pre-incubated for 2 mins with 100 uM etoposide followed by compound addition by ethidium bromide staining based gel electrophoresis method
# [13] = target: T1, DNA topoisomerase 2-alpha; experiment: Inhibition of etoposide-enhanced human topoisomerase 2alpha-mediated DNA cleavage at 100 to 400 uM incubated for 2 mins with simultaneous addition of 100 uM etoposide by ethidium bromide staining based gel electrophoresis method
# [14] = target: T1, DNA topoisomerase 2-alpha; experiment: Inhibition of human topoisomerase 2alpha ATPase activity assessed as inorganic phosphate release at 100 uM using pUC19 DNA substrate by malachite green reagent based ATPase inhibition assay
# [15] = Cytotoxicity against African green monkey Vero cells assessed as reduction in cell viability after 48 hrs by MTT assay; format: cell-based; conditions: chlorocebus sabaeus, read-out: LC50
# [16] = target: T1, DNA topoisomerase 2-alpha; conditions: HEK293, 45 uM
# Description: Inhibition of topoisomerase 2alpha in HEK293 cells at 45 uM incubated for 48 hrs using TOP-FLASH plasmid substrate by ethidium bromide staining based agarose gel electrophoresis method
# [17] = target: T1, DNA topoisomerase 2-alpha; experiment: Inhibition of etoposide-enhanced human topoisomerase 2alpha-mediated DNA cleavage at 100 to 400 uM incubated for 2 mins in presence of 100 uM etoposide by ethidium bromide staining based gel electrophoresis method
# T1 sequence (P11388 whole entry): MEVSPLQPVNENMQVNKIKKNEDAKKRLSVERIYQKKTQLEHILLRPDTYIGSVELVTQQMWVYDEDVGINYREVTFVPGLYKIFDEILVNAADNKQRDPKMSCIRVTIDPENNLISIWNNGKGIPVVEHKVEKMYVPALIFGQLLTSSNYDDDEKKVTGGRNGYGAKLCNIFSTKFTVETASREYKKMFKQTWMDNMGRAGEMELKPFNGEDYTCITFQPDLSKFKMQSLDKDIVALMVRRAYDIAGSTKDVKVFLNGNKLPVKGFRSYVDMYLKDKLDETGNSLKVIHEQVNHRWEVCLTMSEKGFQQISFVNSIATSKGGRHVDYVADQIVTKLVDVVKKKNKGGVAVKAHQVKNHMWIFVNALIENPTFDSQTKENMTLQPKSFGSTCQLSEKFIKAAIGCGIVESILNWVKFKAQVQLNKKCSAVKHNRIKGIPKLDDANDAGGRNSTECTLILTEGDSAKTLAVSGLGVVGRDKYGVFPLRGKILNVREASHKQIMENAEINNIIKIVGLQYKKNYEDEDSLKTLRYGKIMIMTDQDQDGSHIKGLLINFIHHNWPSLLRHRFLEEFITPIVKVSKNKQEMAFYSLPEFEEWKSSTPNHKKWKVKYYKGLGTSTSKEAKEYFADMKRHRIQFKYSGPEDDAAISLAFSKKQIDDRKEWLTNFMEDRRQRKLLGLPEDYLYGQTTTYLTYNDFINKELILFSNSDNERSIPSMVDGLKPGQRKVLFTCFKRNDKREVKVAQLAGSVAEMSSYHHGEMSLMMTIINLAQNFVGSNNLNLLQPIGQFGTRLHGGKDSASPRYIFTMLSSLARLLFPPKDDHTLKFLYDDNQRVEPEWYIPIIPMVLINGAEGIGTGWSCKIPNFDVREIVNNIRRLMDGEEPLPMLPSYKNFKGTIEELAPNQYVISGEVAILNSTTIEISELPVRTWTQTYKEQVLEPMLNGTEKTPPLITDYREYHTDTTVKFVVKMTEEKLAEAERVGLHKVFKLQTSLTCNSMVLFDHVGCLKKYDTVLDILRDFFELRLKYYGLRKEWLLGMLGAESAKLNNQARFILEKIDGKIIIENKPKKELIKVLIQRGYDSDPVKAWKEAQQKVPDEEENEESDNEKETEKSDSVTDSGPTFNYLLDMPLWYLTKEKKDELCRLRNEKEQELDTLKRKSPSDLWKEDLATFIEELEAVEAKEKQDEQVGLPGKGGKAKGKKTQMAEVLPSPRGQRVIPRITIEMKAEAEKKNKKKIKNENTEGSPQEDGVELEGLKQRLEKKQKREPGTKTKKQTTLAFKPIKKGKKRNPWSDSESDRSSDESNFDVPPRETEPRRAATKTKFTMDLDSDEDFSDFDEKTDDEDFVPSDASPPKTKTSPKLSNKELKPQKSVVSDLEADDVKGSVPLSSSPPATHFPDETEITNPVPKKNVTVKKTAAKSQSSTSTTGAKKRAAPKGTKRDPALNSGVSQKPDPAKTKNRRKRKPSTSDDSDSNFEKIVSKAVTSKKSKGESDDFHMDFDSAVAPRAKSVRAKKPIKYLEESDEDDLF
Compound,inhibition [1],inhibition [2],inhibition [3],Activity [4],Activity [5],CC50 [5] [µM],"viability at 48 h, 75 µM [6] [%]",also measured
CC(C)(C)Nc1c(-c2ccc(-c3ccc(Cl)cc3)cc2)nc2ccccn12,inactive,inactive,–,–,–,–,–,–
COc1ccc(-c2ccc3nc(-c4ccc(Cl)cc4)c(NC(C)(C)C)n3c2)cc1,Active,Active,inactive,inactive,Dose-dependent effect,10,> 30,–
Cc1ccc(-c2ccc3nc(-c4ccc(Cl)cc4)c(NC(C)(C)C)n3c2)cc1,Active,Active,inactive,inactive,Dose-dependent effect,15,> 30,–
CC(C)(C)Nc1c(-c2ccc(Cl)cc2)nc2ccc(-c3ccccc3)cn12,Active,Active,inactive,inactive,Dose-dependent effect,10,> 30,IC50 [7]: 55.4 µM; inhibition [8]: Active; Activity [9]: inactive; Activity [10]: inactive; inhibition [11]: Dose-dependent effect; inhibition [12]: Active; inhibition [13]: Active; inhibition [14]: Active
COc1cc([C@@H]2c3cc4c(cc3[C@@H](O[C@@H]3O[C@@H]5CO[C@@H](C)O[C@H]5[C@H](O)[C@H]3O)[C@H]3COC(=O)[C@H]23)OCO4)cc(OC)c1O [ETOPOSIDE],–,–,–,Active,–,55,–,CC50 at 48 h [15]: 75 µM; inhibition [16]: Active
CC(C)(C)Nc1c(-c2ccc(-c3ccccc3)cc2)nc2cnccn12,Active,Active,–,–,–,–,–,–
CC(C)(C)Nc1c(-c2ccc(-c3ccc(F)cc3)cc2)nc2cnccn12,inactive,inactive,–,–,–,–,–,–
COc1ccc(-c2nc3ccc(-c4ccccc4)cn3c2NC(C)(C)C)cc1,Active,Active,inactive,inactive,Dose-dependent effect,13,> 30,–
CC(C)(C)Nc1c(-c2ccc(C(=O)O)cc2)nc2ccccn12,–,–,–,–,–,–,–,inhibition [17]: inactive
COc1ccc(-c2ccc(-c3nc4ccccn4c3NC(C)(C)C)cc2)cc1,inactive,inactive,–,–,–,–,–,–
CC(C)(C)Nc1c(-c2ccc(Cl)cc2)nc2ccc(-c3ccc(F)cc3)cn12,Active,Active,inactive,inactive,Dose-dependent effect,8,> 30,–
CC(=O)c1ccc(-c2ccc(-c3nc4cnccn4c3NC(C)(C)C)cc2)cc1,Active,Active,–,–,–,–,–,–
